Data reported in patent publication US11702404B2, “GLP-1R modulating compounds” (priority 2019, dated 2023).

Key:
[1] = Microsomal stability, human liver microsomes (predicted hepatic clearance); settings: predicted from in vitro microsomal stability data
[2] = target: GLP-1R (Homo sapiens, UniProt P43220); assay: GLP-1R activation: cAMP increase in CHO cells stably expressing GLP-1R; assay type: cell-based; settings: cAMP increase, CHO cells stably expressing GLP-1R, 10 point dose response, 30 minutes incubation; read-out: EC50
Chain of GLP-1R (P43220 24-463): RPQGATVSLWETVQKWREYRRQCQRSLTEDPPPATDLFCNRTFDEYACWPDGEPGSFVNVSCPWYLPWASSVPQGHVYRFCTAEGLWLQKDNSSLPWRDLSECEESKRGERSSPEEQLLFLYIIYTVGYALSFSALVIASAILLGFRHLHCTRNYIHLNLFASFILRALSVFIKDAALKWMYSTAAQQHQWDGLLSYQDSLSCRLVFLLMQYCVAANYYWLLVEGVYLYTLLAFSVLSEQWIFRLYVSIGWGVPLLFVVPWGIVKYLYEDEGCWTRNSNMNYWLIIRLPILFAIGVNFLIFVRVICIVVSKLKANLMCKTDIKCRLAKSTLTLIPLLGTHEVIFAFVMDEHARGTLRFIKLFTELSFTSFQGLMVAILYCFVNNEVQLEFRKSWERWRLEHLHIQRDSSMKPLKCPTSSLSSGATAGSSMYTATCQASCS

Predicted Hepatic Clearance (Pred. Cl.) [1] [mL/min/kg] | EC50 [2] [nM] | Compound
20 | 8.6 | COCCn1c(Cc2cc(F)c(-c3cccc(OCc4cccnc4OC(F)F)n3)cc2F)nc2ccc(C(=O)O)cc21 [Example 542, 2-(4-(6-((2-(difluoromethoxy)pyridin-3-yl)methoxy)pyridin-2-yl)-2,5-difluorobenzyl)-1-(2-methoxyethyl)-1H-benzo[d]imidazole-6-carboxylic acid]
4.67 | 1.51 | [2H]C([2H])(Oc1cccc(-c2cc(F)c(Cc3nc4ccc(C(=O)O)cc4n3CCOC)cc2F)n1)c1ccc(C#N)cc1F [Example 543, 2-(4-(6-((4-cyano-2-fluorophenyl)methoxy-d2)pyridin-2-yl)-2,5-difluorobenzyl)-1-(2-methoxyethyl)-1H-benzo[d]imidazole-6-carboxylic acid]
<1.83 | 18.1 | N#Cc1ccc(COc2cccc(-c3ccc(Cc4nc5cc(C(=O)O)ccc5n4CC4(CF)CC4)c(F)c3)n2)c(F)c1 [Example 552, 2-(4-(6-((4-Cyano-2-fluorobenzyl)oxy)pyridin-2-yl)-2-fluorobenzyl)-1-((1-(fluoromethyl)cyclopropyl)methyl)-1H-benzo[d]imidazole-5-carboxylic acid]
4.17 | 19.8 | COCCn1c(Cc2ccc(-c3cccc(OCc4ccc(C#N)cc4F)n3)cc2F)nc2cc(C(=O)O)ccc21 [Example 553, 2-(4-(6-((4-cyano-2-fluorobenzyl)oxy)pyridin-2-yl)-2-fluorobenzyl)-1-(2-methoxyethyl)-1H-benzo[d]imidazole-5-carboxylic acid]

Continued, molecule first:

Compound | Predicted Hepatic Clearance (Pred. Cl.) [1] [mL/min/kg] | EC50 [2] [nM]
COCCn1c(Cc2cc(F)c(-c3cccc(OCc4ccc(C(F)F)cc4F)n3)cc2F)nc2ccc(C(=O)O)cc21 [Example 544, 2-(4-(6-((4-(difluoromethyl)-2-fluorobenzyl)oxy)pyridin-2-yl)-2,5-difluorobenzyl)-1-(2-methoxyethyl)-1H-benzo[d]imidazole-6-carboxylic acid] | 3.17 | 0.96
N#Cc1ccc(COc2cccc(-c3cc(F)c(Cc4nc5ccc(C(=O)O)cc5n4[C@H]4CCCOC4)cc3F)n2)c(F)c1 [Example 545, 2-(4-(6-((4-cyano-2-fluorobenzyl)oxy)pyridin-2-yl)-2,5-difluorobenzyl)-1-(tetrahydro-2H-pyran-3-yl)-1H-benzo[d]imidazole-carboxylic acid] | 6.67 | 6.9
N#Cc1ccc(COc2cccc(-c3cc(F)c(Cc4nc5ccc(C(=O)O)cc5n4CC4CCOCC4)cc3F)n2)c(F)c1 [Example 546, 2-(4-(6-((4-cyano-2-fluorobenzyl)oxy)pyridin-2-yl)-2,5-difluorobenzyl)-1-((tetrahydro-2H-pyran-4-yl)methyl)-1H-benzo[d]imidazole-carboxylic acid] | 8.83 | 0.33
N#Cc1ccc(COc2cccc(-c3cc(F)c(Cc4nc5ccc(C(=O)O)cc5n4C4CCOCC4)cc3F)n2)c(F)c1 [Example 547, 2-(4-(6-((4-cyano-2-fluorobenzyl)oxy)pyridin-2-yl)-2,5-difluorobenzyl)-1-(tetrahydro-2H-pyran-4-yl)-1H-benzo[d]imidazole-carboxylic acid] | 7.33 | 3.43
COCCn1c(Cc2cc(F)c(-c3cccc(OCc4ccc(C(N)=O)cc4F)n3)cc2F)nc2ccc(C(=O)O)cc21 [Example 554, 2-(4-(6-((4-carbamoyl-2-fluorobenzyl)oxy)pyridin-2-yl)-2,5-difluorobenzyl)-1-(2-methoxyethyl)-1H-benzo[d]imidazole-6-carboxylic acid] | 4.17 | 48.2
COCCn1c(Cc2ccc(-c3cccc(OCc4ccc(C#N)cc4F)n3)cc2F)nc2ccc(P(=O)(O)O)cc21 [Example 555, (2-(4-(6-((4-cyano-2-fluorobenzyl)oxy)pyridin-2-yl)-2-fluorobenzyl)-1-(2-methoxyethyl)-1H-benzo[d]imidazol-6-yl)phosphonic acid] | 1.83 | 57.9
